# Read-outs that look alike come from different tables or passages of the source.
# Columns and labels:
# [1] = tested on: C. parvum Iowa isolate (Bunch Grass Farm); assay: C. parvum Iowa isolate (Bunch Grass Farm) growth in HCT-8 cells, high-content microscopy; type: cell-based; conditions: Cryptosporidium parvum
# Protocol: A high-content microscopy assay was used to measure activity of compounds against C. parvum grown in the human adenocarcinoma cell line HCT-8 (ATCC) as disclosed in Bessoff, K., et al., Antimicrobial agents and chemotherapy 57, 1804-1814, doi:10.1128/AAC.02460-12 (2013), hereby incorporated by reference in its entirety. HCT-8 cells were cultured in 384-well clear-bottomed plates in 50 μL per well of RPMI 1640 medium ([…]), 120 U·mL^−1 penicillin, and 120 μg·mL^−1 streptomycin (ATCC) at 37° C. under 5% CO2. For compound screening and follow-up SAR studies, confluent cell monolayers were infected with C. parvum Iowa isolate oocysts [Bunch Grass Farm (Deary, Id.); ˜5,500 oocysts per well] after inducing excystation by treatment for 10 min at 37° C. with 10 mM HCl and then 10 min at 16° C. in 2 mM sodium taurocholate. Compounds were added at the indicated concentrations 3 h after monolayer infection. After incubation (37° C., 5% CO2) for 48 h, the cells were washed three times with PBS containing 111 mM D-Galactose and fixed by adding an equal volume of 8% formaldehyde in PBS. Cell monolayers were then prepared for microscopy by permeabilizing with 0.1% Triton X-100, washing three times with PBS with 0.1% Tween 20, blocking with 4% bovine serum albumin (BSA) in PBS for 2 h at 37° C. or 4° C. overnight, and staining parasitophorous vacuoles with 1.33 μg·mL^−1 of fluorescein-labeled Vicia villosa lectin (Vector Laboratories) diluted in 1% BSA in PBS with 0.1% Tween 20 for 1 h at 37° C. DNA was then stained by adding Hoechst 33258 (AnaSpec) at a final concentration of 0.09 mM diluted in water, followed by washing five times with PBS containing 0.1% Tween 20. Images were acquired using a Nikon Eclipse TE2000 epifluorescence microscope with an automated stage that was programmed using NIS-Elements Advanced Research software (Nikon) to focus on the center of each well and take a 3×3 composite image using an EXi Blue fluorescence microscopy camera (QImaging) with a 20× objective (numerical aperture 0.45). Nucleus and parasite images were exported separately as tif files and analyzed using NIH ImageJ and previously reported macros, and data analysis and graphing were done using GraphPad Prism software, version 6.01. […]
# P. falciparum = P. falciparum blood-stage growth inhibition; type: cell-based; conditions: Plasmodium falciparum
# Protocol: Pf EC50's were obtained using the procedure disclosed in Bessoff, K. et al. Antimicrobial agents and chemotherapy 58, 2731-2739, doi:10.1128/AAC.02641-13 (2014), hereby incorporated by reference in its entirety. Reduction in C. parvum oocysts/mg feces was determined in the C. parvum immunocompromised mouse model as described in the Examples.
# C. parvum [2] = assay: NOD SCID gamma mouse model of established cryptosporidiosis, fecal oocyst shedding by qPCR; type: in vivo, NOD SCID gamma mice; conditions: oral, 50 mg/kg every 24 h for 4 days
# Source text: FIG. 4A is a schematic of NOD SCID gamma (NSG) mouse model of established intestinal cryptosporidiosis. Intestinal C. parvum infection was established by oral gavage of ˜10^5 oocysts either 7 days (FIGS. 4B and C) or 14 days (FIG. 4D) prior to oral treatment with bicyclic azetidines, vehicle, or paromomycin (positive control). All data are the mean and SEM (n=4 mice per experimental group) of parasite shedding per mg of feces measured by qPCR with results for individual mice shown as superimposed data points. Data points for which no parasite DNA was detected are shown at the qPCR assay limit of detection (0.1 oocysts per mg feces).
# NOD scid gamma mice (NOD.Cg-Prkdcscid Il2rgtmlWjl/Szj; Jackson Laboratory, Bar Harbor, Me.) (NSG) were used to model established Cryptosporidium infection. All NSG mouse studies were performed in compliance with animal care guidelines and with approval by the University of Vermont Institutional Animal Care and Use Committee. Mice were acquired at three to four weeks of age, and acclimatized for one week prior to infection by oral gavage of ˜10^5 C. parvum Iowa isolate (Bunch Grass Farms) oocysts. They were then treated at the specified times and dosages with each compound dissolved in 0.5% hydroxypropylmethyl cellulose, 0.5% Tween 80 (v/v) plus 5% DMSO.
# This cryptosporidiosis infection model used 3-4 week old, freshly weaned, NOD SCID gamma mice orally infected with C. parvum oocysts (˜1×10^5). The infection was monitored by qPCR of feces with primers specific for C. parvum and data are shown as number of oocysts milligram^−1 of feces. Six days following infection and upon confirmation of parasite shedding by qPCR, the three compounds, negative and positive control were orally administered at 50 mg·kg^−1 (body weight) every 24 h for 4 days. (FIGS. 4A-D). […] We then performed a dose-ranging study with Compound 11 using the same immunocompromised mouse model and dosing regimens of 5, 20 and 40 mg·kg^−1 every 24 h for 4 days or 10 mg·kg^−1 every 24 h for 7 days. Mice were monitored for an additional 14 days for relapse of infection.
# HEK293T cytotoxicity = type: cell-based; conditions: human, HEK293T cells
# [3] = tested on: C. parvum (Field Isolate) WSU; assay: C. parvum field isolate (WSU) growth in HCT-8 cells; type: cell-based; conditions: Cryptosporidium parvum
# Protocol: (§1) Studies using farm C. parvum isolates and the C. hominis TU502 isolate were performed by Calibr at Scripps Research (La Jolla, Calif.) in 1,536-well plates using a slightly modified immunofluorescence assay as described in Love, M. S. et al. PLoS neglected tropical diseases 11, e0005373, doi:10.1371/journal.pntd.0005373 (2017), hereby incorporated by reference in its entirety. HCT-8 cell culture medium was replaced with RPMI 1640 medium supplemented with 2% heat-inactivated horse serum, 100 U·mL^−1 penicillin, and […] 24 h prior to infection with the indicated isolate. The C. parvum Iowa isolate was included as a reference in all experiments. Imaging was performed using a Cellnsight CX5 High Content screening platform (Thermo Scientific) with a 10× objective and acquisition of one microscopic field per well. Images were processed using HCS Studio Scan software, and the selected-object count (HCT-8 cells) and spot count (parasitophorous vacuoles) were analyzed in Genedata Screener (version 13.0; Standard). Dose-response curves and EC50 values were calculated using the Smart Fit function of Genedata Analyzer.
# HepG2 cytotoxicity = type: cell-based; conditions: human, HepG2 cells
# C. hominis (TU 502) = assay: C. hominis TU502 growth in HCT-8 cells; type: cell-based; conditions: Cryptosporidium hominis
# Protocol: as §1
# [4] = tested on: C. parvum (Iowa) Sterling; assay: C. parvum (Iowa) Sterling growth in HCT-8 cells; type: cell-based; conditions: Cryptosporidium parvum
# Protocol: as §1
# HepG2 cells = assay: HepG2 cytotoxicity; type: cell-based; conditions: C. parvum Iowa isolate (1% FBS) EC50 compared to HepG2 CC50
# [5] = tested on: C. parvum WT transgenic PheRS (wtL482); assay: In vitro drug susceptibility in HCT-8 cells, luminescence, wild type transgenic; type: cell-based; conditions: Cryptosporidium parvum, HCT-8, 48 h, read-out: EC50, wild type transgenic
# Protocol: (§2) The in vitro drug susceptibility assay using transgenic parasites expressing Nluc was performed as described in Vinyak et al. Briefly, host intestinal epithelial adenocarcinoma (HCT-8) cells grown in 96-well plates were infected with purified transgenic Nluc-expressing oocysts (1,000 oocysts per well) and incubated with different concentrations of Compound 11 for 48 hours. Culture supernatant was discarded from the wells after 48 hours, and 200 μl of NanoGlo lysis buffer containing 1:50 of NanoGlo substrate (Promega) was added to the wells. Lysates were transferred to white 96-well plates and luminescence was measured on a Glomax luminescence reader (Promega). EC50 values were calculated in GraphPad Prism software v7.
# (§3) Oocysts from the mutant (mut482V) and wild type (wtL482) transgenic lines were purified as well as the parent strain (Bunchgrass) used to generate the transgenics. Sporozoites were excised from these oocysts and used to infect 96 well format HCT-8 cultures to perform in vitro drug susceptibility assays. Cultures were incubated for 48 hours in the presence of varying concentrations of Compound 11 and parasite growth was measured by establishing whole well luciferase activity to calculate EC50 values for each strain.
# [6] = tested on: C. parvum mutant transgenic PheRS (mut482V); assay: microbe, parasite or virus in culture; type: cell-based, Cryptosporidium parvum
# Protocol: as §2, §3
# C. parvum [7] = conditions: general statement or literature report; cited from earlier work
# [8] = serum not given, read-out: C. parvum EC50
# [9] = read-out: C. parvum (Iowa) (1% FBS) BGF EC50
# [10] = read-out: C. parvum (Iowa) (10% FBS) BGF EC50
SMILES,"EC50 [1, 8] [µM]","EC50 [1, 9] [µM]","EC50 [1, 10] [µM]",EC50 [3] [µM],EC50 (C. hominis (TU 502)) [µM],EC50 [4] [µM],reduction in oocyst shedding (oocysts per mg feces) (C. parvum [2]),CC50 (HEK293T cytotoxicity) [µM],CC50 (HepG2 cytotoxicity) [µM],outcome of treatment in C. parvum infected NSG mice (C. parvum [7]),other results
"COC[C@@]12CN(C(=O)Nc3ccc(OC)cc3)CCCCN1[C@H](CO)[C@@H]2c1ccc(C#Cc2ccccc2)cc1 [Compound 2, (8R,9S,10S)-10-(hydroxymethyl)-8-(methoxymethyl)-N-(4-methoxyphenyl)-9-(4-(phenylethynyl)phenyl)-1,6-diazabicyclo[6.2.0]decane-6-carboxamide]",0.58,–,–,–,–,–,–,–,–,–,EC50 (P. falciparum): 0.627 µM
"COc1ccc(NC(=O)N2CCCCN3[C@H](CN(C)S(C)(=O)=O)[C@H](c4ccc(C#Cc5ccccc5)cc4)[C@@H]3C2)cc1 [Compound 17, (8R,9R,10S)-N-(4-methoxyphenyl)-10-((N-methylmethylsulfonamido)methyl)-9-(4-(phenylethynyl)phenyl)-1,6-diazabicyclo[6.2.0]decane-6-carboxamide]",–,0.006,0.007,0.006,0.004,0.005,greatest reduction in oocysts,> 40,> 40,–,–
"COc1ccc(NC(=O)N2C[C@@H](O)[C@@H](O)CN3[C@H](CS(C)(=O)=O)[C@H](c4ccc(C#Cc5ccccc5)cc4)[C@@H]3C2)cc1 [Compound 18, (3S,4R,8R,9R,10S)-3,4-dihydroxy-N-(4-methoxyphenyl)-10-((methylsulfonyl)methyl)-9-(4-(phenylethynyl)phenyl)-1,6-diazabicyclo[6.2.0]decane-6-carboxamide]",–,< 0.0004,–,< 0.0004,0.002,< 0.0004,–,6,8,–,–
"COc1ccc(NC(=O)N2CCCCN3C[C@H](c4ccc(C#Cc5ccccc5)cc4)[C@@H]3C2)cc1 [Compound 19, (8R,9S)-N-(4-methoxyphenyl)-9-(4-(phenylethynyl)phenyl)-1,6-diazabicyclo[6.2.0]decane-6-carboxamide]",–,0.036,0.062,0.096,0.055,0.031,–,25,10,–,"EC50 [5]: 0.0408 µM; fold shift in EC50, mutant transgenic vs wild type transgenic [6]: 9 fold; EC50 ([6]; Cryptosporidium parvum, HCT-8, 48 h, read-out: EC50, mutant transgenic): 0.371 µM"
O=C(Nc1ccc(Cl)cc1)N1CCN(c2ccc3nncn3n2)CC1 [MMV665917],–,–,–,–,–,–,–,–,–,curative,–
CC(C)/N=c1\cc2n(-c3ccc(Cl)cc3)c3ccccc3nc-2cc1Nc1ccc(Cl)cc1 [clofazimine],–,–,–,–,–,–,–,–,–,show no improvement at all,–
NC[C@@H]1O[C@H](O[C@H]2[C@@H](O)[C@H](O[C@@H]3[C@@H](O)[C@H](N)C[C@H](N)[C@H]3O[C@H]3O[C@H](CO)[C@@H](O)[C@H](O)[C@H]3N)O[C@@H]2CO)[C@H](N)[C@@H](O)[C@@H]1O [paromomycin],–,–,–,–,–,–,–,–,–,quickly relapse,–

# More lines, main results first:
"EC50 [1, 8] [µM]","EC50 [1, 9] [µM]","EC50 [1, 10] [µM]",EC50 [3] [µM],EC50 (C. hominis (TU 502)) [µM],EC50 [4] [µM],SMILES,reduction in oocyst shedding (oocysts per mg feces) (C. parvum [2]),CC50 (HEK293T cytotoxicity) [µM],CC50 (HepG2 cytotoxicity) [µM],outcome of treatment in C. parvum infected NSG mice (C. parvum [7]),other results
< 0.073,–,–,–,–,–,"COc1ccc(NC(=O)N2CCCCN3[C@H](CO)[C@H](c4ccc(C#Cc5ccccc5)cc4)[C@@H]3C2)cc1 [Compound 9, (8R,9R,10S)-10-(hydroxymethyl)-N-(4-methoxyphenyl)-9-(4-(phenylethynyl)phenyl)-1,6-diazabicyclo[6.2.0]decane-6-carboxamide]",significant reduction in oocyst shedding,–,–,–,–
< 0.073,0.004,0.015,0.009,0.005,0.002,"COc1ccc(NC(=O)N2CCCCN3[C@H](COCCC(=O)O)[C@H](c4ccc(C#Cc5ccccc5)cc4)[C@@H]3C2)cc1 [Compound 10, 3-(((8R,9R,10S)-6-((4-methoxyphenyl)carbamoyl)-9-(4-(phenylethynyl)phenyl)-1,6-diazabicyclo[6.2.0]decan-10-yl)methoxy)propanoic acid]",significant reduction in oocyst shedding,> 40,> 40,–,–
–,0.002,0.008,0.006,0.003,0.0006,"COc1ccc(NC(=O)N2CCCCN3[C@H](CN(C)C(C)=O)[C@H](c4ccc(C#Cc5ccccc5)cc4)[C@@H]3C2)cc1 [Compound 16, (8R,9S,10S)-N-(4-methoxyphenyl)-10-((N-methylacetamido)methyl)-9-(4-(phenylethynyl)phenyl)-1,6-diazabicyclo[6.2.0]decane-6-carboxamide]",greatest reduction in oocysts,27,25,–,"selectivity index (HepG2 cells): > 10,000"

# Reference: patent US20230009323A1, “COMPOUNDS AND METHODS FOR THE TREATMENT OF CRYPTOSPORIDIOSIS” (The Broad Institute, Inc., priority 2019, published 2023)
